Laboratory results reported in PubChem BioAssay (NCI).
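Assay format: 96-well plates, 48-hour exposure. Abbreviation: GI50, concentration required for 50% inhibition of growth. The concentration for full growth arrest is given as TGI.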

Legend:
Test in all cases: growth of human tumour cells (NCI), 48 h
[1] = tested on: EKVX NSCLC
[2] = tested on: HCT-116 colon
[3] = tested on: HCT-15 colon
[4] = tested on: HOP-92 NSCLC
[5] = tested on: NCI-H23 lung
[6] = tested on: OVCAR-8 ovarian
[7] = tested on: RPMI-8226 leukemia
[8] = tested on: SF-295 CNS
[9] = tested on: SN12C renal
[10] = tested on: SR leukemia

Row | Compound | TGI [1] | TGI [2] | TGI [3] | TGI [4] | TGI [5] | TGI [6] | TGI [7] | TGI [8] | TGI [9] | TGI [10] | GI50 [2] | GI50 [3] | GI50 [5] | GI50 [6] | GI50 [7] | GI50 [9] | GI50 [10] | GI50 [4] | GI50 [8] | GI50 [1]
1 | N/N=C(\C(=O)Nc1ccc(Cl)cc1Cl)C(c1cnc2ccccc2n1)[N+](=O)[O-] (stereo not drawn) | > 100 µM | > 100 µM | > 100 µM | > 100 µM | > 100 µM | > 100 µM | > 100 µM | > 100 µM | > 100 µM | – | – | – | – | – | – | – | – | – | – | –
2 | COC(=O)C(C(=O)C(=O)Nc1nc(=S)[nH][nH]1)c1csc(-n2nc(-c3ccccc3)cc2-c2ccccc2)n1 (stereo not drawn) | > 100 µM | > 100 µM | > 100 µM | > 100 µM | > 100 µM | > 100 µM | > 100 µM | – | > 100 µM | > 100 µM | – | – | – | – | – | – | – | – | – | –
3 | NNC(=O)CNC(=O)c1ccc(Cl)cc1Cl | > 100 µM | > 100 µM | > 100 µM | > 100 µM | > 100 µM | > 100 µM | > 100 µM | > 100 µM | > 100 µM | – | – | – | – | – | – | – | – | – | – | –
4 | O=C1NC(=O)C(=C/C=C/c2ccccc2)C(=O)N1 | – | 3.28 µM | 7.06 µM | – | 5.29 µM | 17.8 µM | 10.2 µM | – | 19.5 µM | > 100 µM | 1.71 µM | 2.2 µM | 2.16 µM | 3.01 µM | 3.59 µM | 3.27 µM | 0.716 µM | – | – | –
5 | O=C(c1ccccc1)[C@H]1Nc2ccc(Cl)cc2C2c3ccccc3CC21 (stereo partly drawn) | – | > 100 µM | > 100 µM | – | > 100 µM | > 100 µM | > 100 µM | 67.5 µM | > 100 µM | > 100 µM | – | – | – | – | – | – | – | – | – | –
6 | Cc1ccc(-c2cc3c(SCC(=O)Nc4cc(C(F)(F)F)ccc4Cl)nccn3n2)cc1 | – | > 100 µM | > 100 µM | > 100 µM | > 100 µM | > 100 µM | > 100 µM | > 100 µM | > 100 µM | > 100 µM | 5.01 µM | > 100 µM | > 100 µM | 29.8 µM | > 100 µM | > 100 µM | > 100 µM | 14.1 µM | > 100 µM | –
7 | O=C1c2nsnc2C(=O)c2c(F)c(F)c(F)c(F)c21 | – | 1.36 µM | 2 µM | – | – | 72.7 µM | 1.63 µM | 2.99 µM | 2.28 µM | – | 0.426 µM | 0.495 µM | – | 2.8 µM | 0.374 µM | 0.998 µM | 0.0528 µM | – | 1.4 µM | –
8 | CCCCCCCCOCC(O)COC(=O)CCCCCCC (stereo not drawn) | – | > 100 µM | > 100 µM | 82.3 µM | > 100 µM | > 100 µM | > 100 µM | > 100 µM | > 100 µM | > 100 µM | – | – | – | – | – | – | – | – | – | –
9 | CNC(=O)OCc1c2ccncc2c(C)c2c1[nH]c1ccccc12 | 2.24 µM | 12.7 µM | 1.76 µM | 16.5 µM | 0.822 µM | 2.16 µM | – | 4.66 µM | 1.94 µM | – | – | – | – | – | – | – | – | – | – | –
10 | Clc1cccc(Cl)c1C1CSc2ccccc2N=C1c1ccccc1 (stereo not drawn) | – | 3.32 µM | 3.98 µM | – | 31.4 µM | 10.2 µM | 7.1 µM | 31.7 µM | 12.3 µM | > 100 µM | 1.71 µM | 1.66 µM | 13.1 µM | 3.34 µM | 2.46 µM | 3.35 µM | 3.42 µM | – | 13.6 µM | –
11 | C/C(=C\CCc1ccoc1)CC/C=C(\C)CCCN1CCOCC1 | – | 10.2 µM | 11.8 µM | 5.49 µM | 21 µM | 28 µM | 4.99 µM | 16.1 µM | 21 µM | 9.69 µM | 2.27 µM | 2.98 µM | 6.03 µM | 13.7 µM | 1.88 µM | 6.83 µM | 3.12 µM | 1.43 µM | 3.95 µM | –
12 | Nc1nc2c(s1)CCc1c-2c(Br)n(Cc2ccccc2)c1Br | – | 6.43 µM | 15.9 µM | 23.9 µM | 40.8 µM | 64.2 µM | – | 33.4 µM | 31.2 µM | > 100 µM | 2.53 µM | 3.98 µM | 13.8 µM | 6.48 µM | – | 13.5 µM | 3.41 µM | 4.43 µM | 16.6 µM | –
13 | Oc1ccc(O)c(-c2cn3ccsc3n2)c1 | 35.8 µM | 18.3 µM | 24.7 µM | – | 64.3 µM | 67.1 µM | 7.82 µM | 51.2 µM | 26.9 µM | 4.43 µM | 5.68 µM | 12.3 µM | 16.9 µM | 19.6 µM | 1.73 µM | 12.2 µM | 1.48 µM | – | 13.6 µM | 18.4 µM
14 | N#Cc1ccccc1NC(=O)C(=O)c1c(O)c2ccccc2oc1=O | > 100 µM | > 100 µM | > 100 µM | > 100 µM | > 100 µM | > 100 µM | > 100 µM | > 100 µM | > 100 µM | – | – | – | – | – | – | – | – | – | – | –
15 | CC(=O)c1ccc(OCC(O)CO)cc1 (stereo not drawn) | > 100 µM | 33.5 µM | > 100 µM | > 100 µM | > 100 µM | > 100 µM | > 100 µM | > 100 µM | > 100 µM | – | – | – | – | – | – | – | – | – | – | –
16 | NC(N)=N/N=C/c1c(-c2cc(Cl)sc2Cl)nc2sccn12 | 13.1 µM | – | 2.87 µM | – | 14.9 µM | 2.84 µM | 1.61 µM | 6.15 µM | 1.41 µM | 2.68 µM | – | 1.01 µM | 7.5 µM | 1.04 µM | 0.744 µM | 0.642 µM | 1.35 µM | – | 1.62 µM | 3.72 µM
17 | CC(=O)Nc1cc(N(CCOS(C)(=O)=O)CCOS(C)(=O)=O)ccc1N=O | – | > 100 µM | > 100 µM | > 100 µM | > 100 µM | > 100 µM | > 100 µM | > 100 µM | – | > 100 µM | – | – | – | – | – | – | – | – | – | –
18 | COC(=O)/C(=N\Nc1nc(=S)[nH]n1N)C(C#N)c1ccccc1 (stereo not drawn) | > 100 µM | > 100 µM | > 100 µM | – | > 100 µM | > 100 µM | > 100 µM | – | > 100 µM | – | – | – | – | – | – | – | – | – | – | –
19 | COc1c(C(=O)c2ccc([N+](=O)[O-])cc2)cc(C(C)(C)C)cc1C(C)(C)C | > 100 µM | 62.9 µM | > 100 µM | – | > 100 µM | > 100 µM | 31.7 µM | > 100 µM | > 100 µM | 64.1 µM | – | – | – | – | – | – | – | – | – | –
